The values below come from patent US8853196B2, “Aminochromane, aminothiochromane and amino-1,2,3,4-tetrahydroquinoline derivatives, pharmaceutical compositions containing them, and their use in therapy” (AbbVie Deutschland GmbH & Co. KG, priority 2011, dated 2014).

Where a name gives a salt, the structure may show the parent alone.

This test deals with T1, human GlyT1c transporter (Homo sapiens, UniProt P48067).
T1 construct: expressed in transfected cells; host or cells: CHO cells (recombinant; membranes)
T1 sequence (P48067 1-706): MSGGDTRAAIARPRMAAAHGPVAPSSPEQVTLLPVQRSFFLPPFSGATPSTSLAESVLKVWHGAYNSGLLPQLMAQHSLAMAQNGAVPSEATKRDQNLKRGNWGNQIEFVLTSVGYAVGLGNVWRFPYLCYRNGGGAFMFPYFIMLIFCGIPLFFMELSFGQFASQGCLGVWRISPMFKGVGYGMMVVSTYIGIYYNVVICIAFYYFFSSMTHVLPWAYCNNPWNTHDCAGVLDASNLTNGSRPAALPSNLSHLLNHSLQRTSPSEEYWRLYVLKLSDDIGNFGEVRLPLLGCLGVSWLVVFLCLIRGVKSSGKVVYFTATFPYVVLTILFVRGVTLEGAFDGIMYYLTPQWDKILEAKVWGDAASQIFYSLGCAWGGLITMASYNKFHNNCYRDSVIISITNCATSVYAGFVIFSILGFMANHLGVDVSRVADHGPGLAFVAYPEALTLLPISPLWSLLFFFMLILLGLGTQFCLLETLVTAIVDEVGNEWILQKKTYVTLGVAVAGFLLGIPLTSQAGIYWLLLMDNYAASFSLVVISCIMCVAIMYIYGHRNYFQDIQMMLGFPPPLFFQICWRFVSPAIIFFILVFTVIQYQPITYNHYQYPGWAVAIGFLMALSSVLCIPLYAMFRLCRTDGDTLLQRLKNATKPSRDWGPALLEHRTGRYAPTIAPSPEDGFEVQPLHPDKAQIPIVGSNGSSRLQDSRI
Description: Radioligand binding assay using recombinant CHO cell membranes expressing human GlyT1. As to conditions: values given as upper bounds, read-out: radioligand binding Kiapp. Here is the method: 2. Radioligand Binding Assays Using Recombinant CHO Cell Membranes Expressing Human GlyT1:
Radioligand binding to human GlyT1c transporter-expressing membranes was determined as described in Mezler et al., Molecular Pharmacology 74:1705-1715, 2008.
Consider `CCS(=O)(=O)NCCOc1cc2c(cc1F)OC[C@@H](NC)[C@@H]2Cc1ccccc1` (relative stereo) [Example 30, trans-Ethanesulfonic acid [2-(-4-benzyl-7-fluoro-3-methylamino-chroman-6-yloxy)-ethyl]-amide], for which the Ki was at most 1000 nM.

As to `CN[C@@H]1COc2ccc(OCCNS(=O)(=O)c3cn(C)cn3)cc2[C@H]1Cc1ccccc1` (relative stereo) [Example 2b, trans-N-(2-{[-4-benzyl-3-(methylamino)-3,4-dihydro-2H-chromen-6-yl]oxy}ethyl)-1-methyl-1H-imidazole-4-sulfonamide], the Ki was at most 10 nM.

Take `Cc1cc(S(=O)(=O)NCc2ccc3c(c2)C(Cc2ccccc2)C(N)CO3)c(C)o1` (stereo not shown) [Example 50, 2,5-Dimethyl-furan-3-sulfonic acid (3-amino-4-benzyl-chroman-6-ylmethyl)-amide 2,2,2-trifluoroacetate]: the Ki is at most 100 nM.

Regarding `O=S(=O)(CC1CC1)NCc1ccc2c(c1)C(Cc1ccccc1)C(N1CCC1)CO2` (stereo not shown) [Example 21, N-(3-Azetidin-1-yl-4-benzyl-chroman-6-ylmethyl)-C-cyclopropyl-methane-sulfonamide; trifluoro-acetic acid salt], the Ki was at most 100 nM.

In the case of `CCS(=O)(=O)NCc1cc2c(cc1F)OC[C@@H](NC)[C@H]2Cc1ccccc1` (relative stereo) [Example 27, cis-Ethanesulfonic acid (-4-benzyl-7-fluoro-3-methylamino-chroman-6-ylmethyl)-amide], the Ki was at most 10 nM.

As for `CCS(=O)(=O)NCc1ccc2c(c1)C(Cc1ccccc1)C(NC)CO2` (single isomer, unassigned; isomer 2) [Example 79, cis-N-{[4-Benzyl-3-(methyl-amino)-3,4-dihydro-2H-chromen-6-yl]methy}ethane-sulfonamide. (Isomer 2)], the Ki is at most 100 nM.

For the molecule `N[C@@H]1COc2ccc(CNS(=O)(=O)C3CCC3)cc2[C@H]1Cc1ccccc1` (relative stereo) [Example 70, trans-Cyclobutanesulfonic acid (-3-amino-4-benzyl-chroman-6-ylmethyl)-amide], the Ki is at most 1000 nM.

As to `CN[C@H]1[C@@H](Cc2ccccc2)c2cc(OCCNS(=O)(=O)CC3CC3)ccc2OC1(C)C` (relative stereo) [Example 76, cis-N-[2-(-4-Benzyl-2,2-dimethyl-3-methylamino-chroman-6-yloxy)-ethyl]-C-cyclopropyl-methanesulfonamide], the Ki is at most 1000 nM.

As to `CC(C)S(=O)(=O)NCc1ccc2c(c1)C(Cc1ccccc1)C(N)CO2` (stereo not shown) [Example 48, Propane-2-sulfonic acid (3-amino-4-benzyl-chroman-6-ylmethyl)-amide 2,2,2-trifluoroacetate], the Ki was at most 1000 nM.

For `Cn1ccc(S(=O)(=O)NCc2ccc3c(c2)C(Cc2ccccc2)C(N)CO3)n1` (stereo not shown) [Example 46, 1-Methyl-1H-pyrazole-3-sulfonic acid (3-amino-4-benzyl-chroman-6-ylmethyl)-amide 2,2,2-trifluoroacetate], the Ki was at most 1000 nM.

For the molecule `NC1COc2ccc(CNS(=O)(=O)N3CCOCC3)cc2C1Cc1ccccc1` (stereo not shown) [Example 44, Morpholine-4-sulfonic acid (3-amino-4-benzyl-chroman-6-ylmethyl)-amide 2,2,2-trifluoroacetate], the Ki was at most 10000 nM.

As for `CN[C@H]1[C@H](Cc2ccccc2)c2cc(OCCNS(=O)(=O)CC3CC3)ccc2OC1(C)C` (relative stereo) [Example 77, trans-N-[2-(-4-Benzyl-2,2-dimethyl-3-methylamino-chroman-6-yloxy)-ethyl]-C-cyclopropyl-methanesulfonamide], the Ki was at most 1000 nM.

For the molecule `CN[C@@H]1COc2ccc(OCCNS(=O)(=O)c3cnn(C)c3)cc2[C@@H]1Cc1ccccc1` (relative stereo) [Example 1a, cis-N-(2-{[4-Benzyl-3-(methylamino)-3,4-dihydro-2H-chromen-6-yl]oxy}ethyl)-1-methyl-1H-pyrazole-4-sulfonamide hydrochloride], the Ki is at most 10 nM.

Turning to `CN[C@@H]1COc2ccc(CNS(=O)(=O)CC3CC3)cc2[C@H]1Cc1ccccc1` (relative stereo) [Example 8b, trans-N-{[4-benzyl-3-(methylamino)-3,4-dihydro-2H-chromen-6-yl]methyl}-1-cyclopropylmethanesulfonamide], the Ki is at most 100 nM.

With `Cc1ccc(S(=O)(=O)NCc2ccc3c(c2)C(Cc2ccccc2)C(N)CO3)s1` (stereo not shown) [Example 53, 5-Methyl-thiophene-2-sulfonic acid (3-amino-4-benzyl-chroman-6-ylmethyl)-amide 2,2,2-trifluoroacetate], the Ki is at most 1000 nM.

`NC1COc2ccc(CNS(=O)(=O)c3ccsc3)cc2C1Cc1ccccc1` (stereo not shown) [Example 49, Thiophene-3-sulfonic acid (3-amino-4-benzyl-chroman-6-ylmethyl)-amide 2,2,2-trifluoroacetate]: the Ki was at most 1000 nM.

As for `CCCN[C@@H]1COc2ccc(CNS(=O)(=O)c3cn(C)cn3)cc2[C@@H]1Cc1ccccc1` (relative stereo) [Example 35, cis-N-((-4-benzyl-3-(propylamino)chroman-6-yl)methyl)-1-methyl-1H-imidazole-4-sulfonamide 2,2,2-trifluoroacetate], the Ki was at most 10 nM.

Regarding `CN[C@@H]1COc2ccc(CNS(=O)(=O)c3cn(C)cn3)cc2[C@H]1Cc1ccccc1` (relative stereo) [Example 5b, trans-1-Methyl-1H-imidazole-4-sulfonic acid (4-benzyl-3-methylamino-chroman-6-ylmethyl)-amide], the Ki was at most 10 nM.

In the case of `CC(C)CN[C@@H]1COc2ccc(CNS(=O)(=O)c3cn(C)cn3)cc2[C@@H]1Cc1ccccc1` (relative stereo) [Example 37, cis-N-((-4-benzyl-3-(isobutylamino)chroman-6-yl)methyl)-1-methyl-1H-imidazole-4-sulfonamide 2,2,2-trifluoroacetate], the Ki was at most 10 nM.

As to `Cn1cnc(S(=O)(=O)NCc2ccc3c(c2)[C@H](Cc2ccccc2)[C@H](NCC2CCC2)CO3)c1` (relative stereo) [Example 41, cis-N-((-4-benzyl-3-((cyclobutylmethyl)amino)chroman-6-yl)methyl)-1-methyl-1H-imidazole-4-sulfonamide 2,2,2-trifluoroacetate], the Ki is at most 10 nM.

For the molecule `CN[C@@H]1COc2cc(F)c(CNS(=O)(=O)c3cn(C)cn3)cc2[C@H]1Cc1ccccc1` (relative stereo) [Example 32, trans-1-Methyl-1H-imidazole-4-sulfonic acid (-4-benzyl-7-fluoro-3-methylamino-chroman-6-ylmethyl)-amide], the Ki was at most 10 nM.

For `CS(=O)(=O)NCc1ccc2c(c1)[C@H](Cc1ccccc1)[C@H](N1CCCC1)CO2` (relative stereo) [Example 64, cis-N-(-4-Benzyl-3-pyrrolidin-1-yl-chroman-6-ylmethyl)-methanesulfonamide], the Ki is at most 1000 nM.

As to `CCS(=O)(=O)NCc1ccc2c(c1)[C@H](Cc1ccccc1)[C@H](N1CCCC1)CO2` (relative stereo) [Example 63, cis-Ethanesulfonic acid (-4-benzyl-3-pyrrolidin-1-yl-chroman-6-ylmethyl)-amide], the Ki is at most 100 nM.

On to `CCS(=O)(=O)NCc1ccc2c(c1)C(Cc1ccccc1)C(N1CCC1)CO2` (stereo not shown) [Example 19, Ethanesulfonic acid (3-azetidin-1-yl-4-benzyl-chroman-6-ylmethyl)-amide; trifluoro-acetic acid salt], for which the Ki is at most 1000 nM.

For `CCCS(=O)(=O)NCCOc1ccc2c(c1)[C@H](Cc1ccccc1)[C@H](NC)CO2` (relative stereo) [Example 3a, cis-N-(2-{[-4-Benzyl-3-(methylamino)-3,4-dihydro-2H-chromen-6-yl]oxy}ethyl)propane-1-sulfonamide], the Ki was at most 100 nM.

`CN[C@@H]1COc2ccc(OCCNS(=O)(=O)CC3CC3)cc2[C@@H]1Cc1ccccc1` (relative stereo) [Example 4a, cis-N-(2-{[-4-Benzyl-3-(methylamino)-3,4-dihydro-2H-chromen-6-yl]oxy}ethyl)-1-cyclopropylmethanesulfonamide]: the Ki was at most 10 nM.

Turning to `Cn1cnc(S(=O)(=O)NCc2ccc3c(c2)[C@@H](Cc2ccccc2)[C@H](N)CO3)c1` (relative stereo) [Example 13, trans-1-Methyl-1H-imidazole-4-sulfonic acid (3-amino-4-benzyl-chroman-6-ylmethyl)-amide], the Ki was at most 10 nM.

Consider `CCCS(=O)(=O)NCCOc1ccc2c(c1)[C@@H](Cc1ccccc1)[C@H](NC)CO2` (relative stereo) [Example 3b, trans-N-(2-{[-4-benzyl-3-(methylamino)-3,4-dihydro-2H-chromen-6-yl]oxy}ethyl)propane-1-sulfonamide], for which the Ki is at most 1000 nM.
